Experimental data: patent publication US20250250310A1, “COMBINATION THERAPY WITH ADP-RIBOSE BINDING PEPTIDE AND ADP-RIBOSE FOR PREVENTION OR TREATMENT OF CANCER” (PEARLSINMIRES CO., LTD., priority 2023, published 2025)

Assays:
Assay type in all cases: cell-based, human
Details in all cases: treated groups vs untreated, ADPR 1 mM, peptide 25 μM, CPP-peptide 10 μM, 96 hours
[1] = system: Colon cancer (HCT116) cells; test: HCT116 cell viability (MTT), peptides and ADP-ribose alone or in combination
Experimental: (§1) 2.5×10^3 Colon cancer (HCT116) cells were cultured in a 96-well plate for 24 hours under 37° C. and 5% CO2 conditions, and then divided into the following groups and treated with each peptide according to Examples at GI50 concentration alone or in combination. • 1) Untreated group • 2) Group treated with ADPR at 1 mM concentration alone • 3) Group treated with peptide of Example 6 at 25 μM concentration alone • 4) Group treated with each CPP-peptide of Example 20 at 10 μM concentration alone • 5) Group treated in combination with ADPR at 1 mM concentration and peptide of Example 6 at 25 μM concentration (Combination 1) • 6) Group treated in combination with ADPR at 1 mM concentration and CPP-peptide of Example 20 at 10 μM concentration (Combination 2)
(§2) The cells were then cultured for another 96 hours under 37° C. and 5% CO2 conditions, and 10 μl of 3-(4,5-dimethylthiazol-2-yl)-2,5-diphenyltetrazolium bromide reagent was added to each well and reacted for 1 hour. The reagent was removed at the end of the reaction, 200 μl of dimethyl sulfoxide was then added to each well, and the absorbance was measured to determine the cell viability.

[2] = system: Lung cancer (H1975) cells; test: H1975 cell viability (MTT), peptides and ADP-ribose alone or in combination
Experimental: as §1, with “2.5×10^3 Lung” for “2.5×10^3 Colon”, “cancer (H1975)” for “cancer (HCT116)”, “Example 5” for “Example 6”, “Example 19” for “Example 20”
as §2

[3] = system: Pancreatic cancer (AsPC-1) cells; test: AsPC-1 cell viability (MTT), peptides and ADP-ribose alone or in combination
Experimental: as §1, with “2.5×10^3 Pancreatic” for “2.5×10^3 Colon”, “cancer (AsPC-1)” for “cancer (HCT116)”, “Example 3” for “Example 6”, “Example 17” for “Example 20”
as §2

Measured: cell viability

Nc1ncnc2c1ncn2[C@@H]1O[C@H](COP(=O)(O)OP(=O)(O)OC[C@H]2O[C@@H](O)C(O)C2O)C(O)C1O (stereo partly drawn) [ADP-ribose]
viability was reduced: [1] | [2] | [3]
